Patent US12428427B2, “Methods and compositions for targeting PD-L1” (Aligos Therapeutics, Inc., priority 2021, dated 2025)

Legend:
PDL1/PD1 = PDL1/PD1 (Homo sapiens, UniProt Q9NZQ7); assay: PDL1/PD1 Binding Assay; settings: PDL1-6×His 0.3 nM, PD1-Fc-Avi-Biotin 2.5 nM, Acceptor/Donor beads; read-out: PD-1/PD-L1 PPI IC50
Description: Compounds to be tested were serially diluted in DMSO, and further diluted in assay buffer (25 mM Hepes pH 7.4, 150 mM NaCl, 0.005% Tween 20, BSA 0.01%). Diluted compounds were added to the wells with final concentration of DMSO at 1%. PDL1-6×His protein was added to the wells, mixed well with compound. The plates were incubated for 30 min at room temperature. PD1-Fc-Avi-Biotin protein was added to the wells. Final concentration of PDL1 and PD1 protein is 0.3 nM and 2.5 nM, respectively. After a binding time of 30 min at room temperature, Anti-6×His Acceptor beads (final concentration 20 ug/ml) were added to the wells, and the incubation continued for 1 h. Streptavidin Donor beads (final concentration 20 ug/mL) were added at reduced light. The plates were sealed with foil and incubated in the dark for additional 1 h or overnight before reading on an Envision reader. The IC50 values were determined by fitting the curves using a four-parameter equation in Graphpad Prism 8.

PD-1/PD-L1 interaction = biological target: T1, PD-1/PD-L1 interaction (Homo sapiens, UniProt Q9NZQ7); assay: PD-1/PD-L1 NFAT Reporter Assay; assay type: cell-based; settings: co-culture of PD-L1 expressing CHO cells and PD-1 overexpressing Jurkat cells, 6 hrs, NFAT luciferase
T1 construct: expressed in transfected cells; Jurkat cells (PD-1 plus NFAT-luciferase)
Description: Blocking the PD-1/PD-L1 interaction will release the inhibitory signal and results in TCR signaling and NFAT-mediated luciferase activity.
CHO cells expressing surface-bound anti-CD3 antibodies and PD-L1 were first seeded overnight and treated with the compounds. Jurkat cells overexpressing PD-1 and a luciferase construct under NFAT promoter were then immediately seeded on the monolayer of CHO cells. The co-culture was then incubated for 6 hrs at 37° C. Luciferase activity was assessed by adding the ONE-Glo reagent and measuring luminescence with a plate reader. EC50 values were determined from the fit of the dose-response curves.

T1 sequence (Q9NZQ7 19-290): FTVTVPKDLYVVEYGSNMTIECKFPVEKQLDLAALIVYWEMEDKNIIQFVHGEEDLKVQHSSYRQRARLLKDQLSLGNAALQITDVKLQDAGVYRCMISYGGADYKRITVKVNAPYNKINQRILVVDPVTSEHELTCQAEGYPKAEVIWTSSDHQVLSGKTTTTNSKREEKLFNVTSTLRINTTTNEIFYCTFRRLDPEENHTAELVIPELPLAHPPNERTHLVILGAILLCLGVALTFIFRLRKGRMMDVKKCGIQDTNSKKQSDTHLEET
Chain of PDL1/PD1 (Q9NZQ7 19-238 limits assumed): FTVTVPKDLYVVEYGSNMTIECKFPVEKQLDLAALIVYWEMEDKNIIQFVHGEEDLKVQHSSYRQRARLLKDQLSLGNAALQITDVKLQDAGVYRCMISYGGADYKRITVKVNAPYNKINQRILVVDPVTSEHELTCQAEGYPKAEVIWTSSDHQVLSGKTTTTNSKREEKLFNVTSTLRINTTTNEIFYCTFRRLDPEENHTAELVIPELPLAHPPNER

Row | SMILES | IC50 (PDL1/PD1) [nM] | EC50 (PD-1/PD-L1 interaction) [nM]
1 | COc1nc(-c2cccc(-c3cccc(NC(=O)c4ccnn(C)c4=O)c3Cl)c2Cl)ccc1CN1CCCC[C@H]1C(=O)O [Compound C-10] | ≤ 10 | 100 to 1000
2 | COc1nc(-c2cccc(-c3cccc(NC(=O)c4ccnn(C)c4=O)c3C)c2Cl)ccc1CN1CC(C(=O)O)C1 [Compound C-54] | ≤ 10 | 10 to 100
3 | COc1nc(-c2cccc(-c3cccc(NC(=O)c4ccnn(C)c4=O)c3Cl)c2Cl)ccc1CN[C@@H]1CCOC[C@@H]1O [Compound C-1] | ≤ 10 | > 10000
4 | COc1nc(-c2cccc(-c3cccc(NC(=O)c4ccnn(C)c4=O)c3Cl)c2Cl)ccc1CN1CCCC[C@@H]1C(=O)O [Compound C-11] | ≤ 10 | 100 to 1000
5 | COc1nc(-c2cccc(-c3cccc(NC(=O)c4ccnn(C)c4=O)c3Cl)c2Cl)ccc1CNCC(C)(C)C(=O)O [Compound C-35] | ≤ 10 | 10 to 100
6 | COc1nc(-c2cccc(-c3cccc(NC(=O)c4ccnn(C)c4=O)c3Cl)c2Cl)ccc1CNC1CC1 [Compound C-6] | ≤ 10 | 10 to 100
7 | COc1nc(-c2cccc(-c3cccc(NC(=O)c4ccnn(C)c4=O)c3C)c2Cl)ccc1CN1CC(NC(C)=O)C1 [Compound C-63] | ≤ 10 | 10 to 100
8 | COc1nc(-c2cccc(-c3cccc(NC(=O)c4ccnn(C)c4=O)c3C)c2Cl)cnc1CNC[C@@H]1CCC(=O)N1 [Compound B-5] | ≤ 10 | 100 to 1000
9 | COc1nc(-c2cccc(-c3cccc(NC(=O)c4ccnn(C)c4=O)c3Cl)c2Cl)ccc1CN1CC2(C(=O)O)CCC1CC2 [Compound C-27] | ≤ 10 | 100 to 1000
10 | COc1nc(-c2cccc(-c3cccc(NC(=O)c4ccnn(C)c4=O)c3C)c2Cl)ccc1CNC[C@@H]1CCC(=O)N1 [Compound B-6] | ≤ 10 | ≤ 10
11 | CCOC(=O)C1CN(Cc2c(C)cc(-c3cccc(-c4cccc(NC(=O)c5ccnn(C)c5=O)c4C)c3Cl)nc2OC)C1 [Compound C-90] | ≤ 10 | 10 to 100
12 | COc1nc(-c2cccc(-c3cccc(NC(=O)c4ccnn(C)c4=O)c3Cl)c2Cl)ccc1CNC[C@@H](C)C(=O)O [Compound C-37] | ≤ 10 | 10 to 100
13 | COc1nc(-c2cccc(-c3cccc(NC(=O)c4ccnn(C)c4=O)c3Cl)c2Cl)ccc1CN1CC(O)C1 [Compound C-7] | ≤ 10 | ≤ 10
14 | COc1nc(-c2cccc(-c3cccc(NC(=O)c4ccnn(C)c4=O)c3Cl)c2Cl)ccc1CNCCCC(=O)O [Compound C-25] | ≤ 10 | 10 to 100
15 | CCOC(=O)[C@H]1CCN(Cc2ccc(-c3cccc(-c4cccc(NC(=O)c5ccnn(C)c5=O)c4Cl)c3Cl)nc2OC)C1 [Compound C-15] | 10 to 100 | 10 to 100
16 | COc1nc(-c2cccc(-c3cccc(NC(=O)c4ccnn(C)c4=O)c3Cl)c2Cl)ccc1CN[C@@H]1CN(C(C)=O)C[C@H]1O [Compound C-49] | ≤ 10 | 10 to 100
17 | COc1nc(-c2cccc(-c3cccc(NC(=O)c4ccnn(C)c4=O)c3C)c2Cl)cc(C)c1CNC[C@@H]1CCC(=O)N1 [Compound B-7] | ≤ 10 | ≤ 10
18 | COc1nc(-c2cccc(-c3cccc(NC(=O)c4ccnn(C)c4=O)c3C)c2Cl)ccc1CN1CC2(C1)CN(C(C)=O)C2 [Compound C-64] | ≤ 10 | 10 to 100
19 | COc1nc(-c2cccc(-c3cccc(NC(=O)c4ccnn(C)c4=O)c3Cl)c2Cl)ccc1CN1CCC[C@H]1CC(=O)O [Compound C-34] | ≤ 10 | 10 to 100
20 | COc1nc(-c2cccc(-c3cccc(NC(=O)c4ccnn(C)c4=O)c3Cl)c2Cl)ncc1CN[C@@H]1CCOC[C@@H]1O [Compound C-81] | ≤ 10 | ≤ 10
21 | CCOC(=O)C1CN(Cc2ccc(-c3cccc(-c4cccc(NC(=O)c5ccnn(C)c5=O)c4C)c3Cl)nc2OC)C1 [Compound C-53] | ≤ 10 | 10 to 100
22 | COc1nc(-c2cccc(-c3cccc(NC(=O)c4ccnn(C)c4=O)c3Cl)c2Cl)ccc1CN[C@@H](CO)C(=O)O [Compound C-47] | ≤ 10 | 10 to 100
